Data reported in the METLIN SMRT retention time set (Domingo-Almenara et al. 2019).

Assay: gradient 5% acetonitrile 3 min, to 50% in 2 min, to 85% in 15 min, held 3 min, 100 µL/min
Settings: column: Zorbax Extend-C18 2.1 x 50 mm; eluents: water / acetonitrile, 0.1% formic acid
Summary of the method: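 Retention time was recorded from adduct peaks, which were picked computationally and each inspected manually. Pure standards ran in mixtures of ~100 molecules on HPLC coupled to a quadrupole time-of-flight mass spectrometer, in positive and negative ionization mode, through a Zorbax Extend-C18 column (2.1 × 50 mm, 1.8 μm) at 100 μL/min. Eluents were water and acetonitrile, each with 0.1% formic acid.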

RP-LC retention time [s] | SMILES
756 | CC(C)C(NC(=O)c1ccc(F)c(Cl)c1)C(=O)Nc1nc2ccccc2[nH]1 (centres undefined)
1210 | Cc1cccc(-c2nc(Cn3nnc(C(=O)NCc4cccc(Br)c4)c3C)c(C)o2)c1
1060 | Cc1ccc(Nc2c(-c3ccc(Cl)cc3)nc3ccc(Cl)cn23)cc1
938 | CCOc1ccc(-c2nc(NC(=O)Cc3csc(C)n3)sc2C)cc1
657 | CC(=O)N1CCC(C(=O)N2CCCCCCNC(=O)[C@@H]3CCCC[C@@H]32)CC1
838 | COc1cc(NC(=O)Cn2c(=O)nc(N3CCCC(C)C3)c3ccccc32)cc(OC)c1 (centres undefined)
646 | Cc1cc(C)nc(Nc2nc(CC(=O)Nc3nc(C)c(C(=O)N(C)C)s3)cs2)n1
728 | N#Cc1cccc(C(=O)NC2CCN(c3cc(-c4ccc(Cl)cc4)[nH]n3)C2)c1 (centres undefined)
848 | CCCCOc1ccc(CNC(=O)c2cc3c(=O)n(C)ccc3n2C)cc1
764 | CCNC(=O)CCc1nc2ccccc2n(CC(=O)Nc2ccc(C(=O)OCC)cc2)c1=O
865 | CCC(=O)Nc1ccc(-n2cnc(C(=O)N3CCN(c4ccc(C)cc4C)CC3)c2)nc1
703 | O=C(c1ccc(C(F)(F)F)s1)N1CCN(c2nc(CN3CCCCC3)cs2)CC1
1210 | CC1CCN(c2nn(CC(=O)Nc3cccc(Cl)c3)c(=O)c3ccccc23)CC1
993 | CCn1cc(-c2nc(C)c(C(=O)Nc3cccc(C(=O)OC)c3)s2)c2cccnc21
933 | Cc1csc(COc2ccc(C(=O)Nc3ccccc3OC(F)(F)F)cc2)n1
644 | Cc1ccc(-c2nnc(C)c(NC3CC3)n2)cc1
775 | COc1ccc(S(=O)(=O)N2CCC(Cc3nncn3-c3ccccc3)CC2)cc1
1120 | CCOc1cccc(Cn2c(=O)c3sccc3n(Cc3nc(-c4ccc(C)cc4)no3)c2=O)c1
632 | CN1C(=O)[C@H]2CN(Cc3ccc(Cl)c(F)c3)C[C@H]2C1=O
731 | COc1cccc(NC(=O)N2CCC(OC3CCN(S(C)(=O)=O)CC3)CC2)c1
957 | O=C(Nc1nccs1)c1cn(Cc2ccc(F)cc2)cc2c(=O)n(-c3ccccc3)nc1-2
949 | O=C(NCC1CCN(C(=O)Oc2ccccc2)CC1)C1c2ccccc2Oc2ccccc21

RP-LC retention time [s] | SMILES
603 | O=C(c1n[nH]c2ccccc12)N1CCCn2nc(-c3ccncc3)cc2C1
717 | O=C(c1cn[nH]c1)N1CCC(c2nc(CCOCC3CCCC3)no2)C1 (centres undefined)
836 | CCOc1ccc(CNC(=O)c2c(C)sc3ccn(CC)c(=O)c23)cc1
917 | Cc1cc(=O)n(Cc2ccc(F)cc2)c(N2CCSCC2)n1
847 | CCOc1ccc(NC(=O)Cn2cccc2-c2nnc(C3CC3)o2)cc1
804 | Cc1ccc(CNC(=O)C2(C)CN(S(C)(=O)=O)CC(=O)N2c2ccccc2F)cc1 (centres undefined)
810 | O=C(Nc1cn(-c2ccc(C(=O)N3CCN(c4cccc(Cl)c4)CC3)cc2)cn1)C1CC1
749 | CCOC(=O)/C=C/c1ccc(O)c(OC)c1
679 | COCCNC(=O)c1sc2ncn(CC(=O)N3CCCCC3C)c(=O)c2c1C (centres undefined)
827 | CCOC(=O)c1nc(NC2CCCCCC2)c2ccccc2n1
834 | CCOC(=O)c1c(S(=O)(=O)N2CCC(C(=O)Nc3ccccc3)CC2)c(C)n(C)c1C
768 | CCOC(=O)c1cccc(NC(=O)C2CCN(S(=O)(=O)c3ccc4[nH]c(=O)ccc4c3)CC2)c1
631 | COc1ccc(CC(C)(O)CNC(=O)C2CC2)cc1 (centres undefined)
738 | CCc1nnc2c(=O)n(CC(=O)N3CCN(c4ccccc4)CC3)c3cccnc3n12
864 | CC1Oc2ccc(NC(=O)C3CCCC3)cc2CN(Cc2ccccc2F)C1=O (centres undefined)
893 | O=C1CC(CNS(=O)(=O)c2cccc(C(F)(F)F)c2)CN1c1ccc(Cl)cc1 (centres undefined)
634 | Cc1ccc(C)c2c(=O)c3c([nH]c12)CCN(CC(=O)Nc1ccc(F)cc1)C3
695 | Cc1ccc(C)c(C(=O)Nc2cccn3c(C)nnc23)c1
644 | CN1CCC2(CC1)CN(C(=O)Cn1c(=O)oc3ccccc31)Cc1ccccc1O2
826 | CCS(=O)(=O)c1nc2ccc(NS(=O)(=O)c3ccc4c(c3)OCCO4)cc2s1
601 | COc1ccc(NC(=O)Cn2c(N3CCCC3)nc(C)cc2=O)cc1OC
657 | O=C(NCC1(N2CCOCC2)CCOC1)Nc1cc(Cl)cc(Cl)c1 (centres undefined)

RP-LC retention time [s] | SMILES
630 | COc1ccc(C(=O)c2cccc(N)c2)cc1OC
624 | CC(C)=CCC/C(C)=C/CNCCNC1C2CC3CC(C2)CC1C3 (centres undefined)
950 | COc1ccccc1NC(=O)N1CCCC1c1cc(C(C)C)on1 (centres undefined)
803 | Cc1noc(-c2cc(=O)n(CC(=O)Nc3ccc4c(c3)OCCO4)c3ccccc23)n1
958 | Cn1cc(-c2nc(C(=O)Nc3ccc(C#N)cc3)cs2)c2cccnc21
747 | O=c1ccc(N2CCC(NS(=O)(=O)c3ccccc3Cl)CC2)nn1CC1CC1
728 | Cc1cc(Br)ccc1NC(=O)CCc1c(-c2ccc(F)cc2)nc2ccccn12
738 | Cc1cc2[nH]c(C(=O)Nc3ccc(C)c(F)c3)c(CN3CCOCC3)c2s1
624 | Cc1ccccc1-c1nc2cnccn2c1NCCC(=O)NCc1ccco1
658 | Cc1cccc(NC(=O)Cn2c(C)nc(C)c(C)c2=O)c1
757 | Cc1ccc(Cl)cc1NC(=O)N(C)CC1CCOC1 (centres undefined)
647 | COc1cc(OC)c(NC(=O)Cc2nnc(-c3cnccn3)o2)cc1Cl
608 | O=C(CN1C(=O)CCC1=O)N1CCC(c2noc(-c3ccccn3)n2)C1 (centres undefined)
850 | O=C(Nc1ccc2c(c1)N(C(=O)c1ccco1)CCC2)Oc1ccccc1
997 | Cc1ccc(C(=O)Nc2ccc3c(c2)Sc2ncccc2C(=O)N3C(C)C)cc1C
853 | O=C(Cn1c(-c2cccnc2)nc2ccccc21)Nc1ccc(OC(F)(F)F)cc1
836 | CCCn1cc(C(=O)N2CCCc3ccccc32)c2nn(-c3ccccc3)c(=O)c-2c1
667 | NC(=O)COc1cc(-c2cccc(Cl)c2)nc2ccc(NC(=O)C3CC3)cc12
996 | COC(=O)c1nnn(-c2ccc(C(C)C)cc2)c1C(=O)OC
960 | COCCn1cc2c3c(cccc31)CN(C(=O)c1cccc(Cl)c1)CC2
813 | CCN(CC)C(C)CN1c2ccccc2Sc2ccccc21 (centres undefined)
1090 | COc1ccc(NC(=O)Cn2nc3cc(C)nc(Nc4ccc(C)c(C)c4)n3c2=O)cc1

RP-LC retention time [s] | SMILES
1140 | C=CCn1c(=O)c2ccccc2n(Cc2nc(-c3ccc(F)c(Cl)c3)no2)c1=O
613 | CCCN(Cc1ccc(OC)c(OC)c1)Cc1cc(=O)n2ccc(C)cc2n1
1240 | COc1ccc2c(c1)CCc1sc(NC(=O)c3cccc(Br)c3)nc1-2
594 | COc1ccc(N2CCN(C(=O)C3CC(=O)N(c4ccc(C)c(C)c4)C3)CC2)nn1 (centres undefined)
728 | Cc1ccccc1NS(=O)(=O)c1c[nH]c2ncccc12
547 | Cc1cc(C)cc(C(=O)N2CCC(c3nc4ccncc4n3C)C2)c1 (centres undefined)
1120 | O=C(c1cc(F)cc(F)c1)N1CCCC(c2ccnc(-c3cccc(F)c3)n2)C1 (centres undefined)
910 | O=C(CN1C(=O)CC(c2cccs2)=Nc2ccccc21)Nc1ccccc1F
736 | COCCc1noc(C2CN(C(=O)C3COc4ccccc4O3)C2)n1 (centres undefined)
677 | Cc1ccc(NC(=O)Cn2nc3n(c2=O)CCCC3)cc1F
966 | CCOc1ccc(CCNC(=O)c2ccc3c(c2)N(CC)C(=O)c2ccccc2O3)cc1OCC
921 | Cc1cc2c(c(=O)n(-c3ccc(F)cc3)c(=O)n2CC(=O)Nc2ccc(C(C)C)cc2)n1C
873 | Cc1ccc(C2Cn3nnc(C(=O)NCC4CC4)c3CO2)cc1 (centres undefined)
670 | Cc1nnc2c(=O)n(CC(=O)NCc3cc(F)ccc3F)c3cccnc3n12
895 | Cc1cc(C)cc(Nc2c(-c3ccc(N4CCOCC4)cc3)nc3cnccn23)c1
623 | CCNC(=O)C1CCN(S(=O)(=O)c2ccc3c(c2)NC(=O)CO3)CC1
1230 | CCCCCCOC(=O)[C@@]1(O)CC2O[C@]1(C)n1c3ccccc3c3c4c(c5c6ccccc6n2c5c31)C(=O)NC4
824 | Cn1nccc1C(=O)N1CC(c2nc(CCOCC3CCCC3)no2)C1
808 | CCOc1ccc(NC(=O)N2CCC[C@@H]2C(=O)NCc2csc(-c3ccccc3)n2)cc1
584 | CCC(C)C1Nc2ccc(C(=O)NCCCN3CCOCC3)cc2NC1=O (centres undefined)
806 | COc1ccc(NS(=O)(=O)c2ccc(-c3c(C)noc3C)cc2)cc1OC
663 | O=C(NC1CCCCC1)N1CCCC(Cn2cnc3cccnc32)C1 (centres undefined)

SMILES | RP-LC retention time [s]
C[C@H](N)C(=O)N[C@@H](C)C(=O)N[C@@H](Cc1ccccc1)C(=O)CCl | 638
